According to article PMC4112551 (Journal of biomolecular screening, 2012):

Target: rhGCPII (extracellular part of human GCPII, amino acids 44–750) (Homo sapiens, UniProt Q04609)
Assay: Fluorescence polarization
Assay type: binding

rhGCPII (extracellular part of human GCPII, amino acids 44–750), sequence (Q04609 44-750): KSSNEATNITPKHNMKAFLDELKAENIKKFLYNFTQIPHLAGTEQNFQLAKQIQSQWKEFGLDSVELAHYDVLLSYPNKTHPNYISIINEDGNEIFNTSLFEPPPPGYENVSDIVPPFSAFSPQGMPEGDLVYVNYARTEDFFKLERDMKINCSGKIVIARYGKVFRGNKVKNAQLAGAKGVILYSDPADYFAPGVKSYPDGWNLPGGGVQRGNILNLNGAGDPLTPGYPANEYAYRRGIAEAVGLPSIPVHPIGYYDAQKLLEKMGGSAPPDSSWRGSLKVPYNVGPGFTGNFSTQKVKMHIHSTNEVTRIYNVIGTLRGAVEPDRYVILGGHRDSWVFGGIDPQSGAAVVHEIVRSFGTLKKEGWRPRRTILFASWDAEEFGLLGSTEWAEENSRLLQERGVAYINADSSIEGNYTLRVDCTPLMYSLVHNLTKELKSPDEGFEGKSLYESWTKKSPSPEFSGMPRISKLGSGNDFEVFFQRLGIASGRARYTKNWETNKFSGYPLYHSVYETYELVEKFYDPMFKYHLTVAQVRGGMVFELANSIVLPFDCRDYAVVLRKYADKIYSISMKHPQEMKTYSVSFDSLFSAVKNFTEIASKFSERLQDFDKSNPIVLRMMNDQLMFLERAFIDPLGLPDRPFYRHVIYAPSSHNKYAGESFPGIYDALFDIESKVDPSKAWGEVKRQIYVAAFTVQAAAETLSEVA

`N[C@@H](CCC(=O)O)C(=O)O` [glutamic acid] was tested, and the IC50 was 870 µM.

`N[C@@H](Cn1oc(=O)[nH]c1=O)C(=O)O` [quisqualate] showed an IC50 of 16.7 µM.
